Measured values taken from ChEMBL document CHEMBL1155064, “Discovery of aminoquinolines as a new class of potent inhibitors of heat shock protein 90 (Hsp90): Synthesis, biology, and molecular modeling” (Bioorg Med Chem, 2008).
The source made the active and inactive calls. No cut-off for these calls is given here.

How the values were obtained:
MCF7 = test: Induction of Her2 degradation in human MCF7 cells after 24 hrs by Western blot analysis; assay type: functional, cell-based; conditions: MCF7, 24 h
Heat shock protein HSP90 [1] = target: T1, Heat shock protein HSP90 (Homo sapiens, UniProt P07900+P08238); test: Inhibition of Hsp90 in human MCF7 cells assessed as Her2 level after 24 hrs by Western blot; assay type: cell-based
Heat shock protein HSP90 [2] = target: T1, Heat shock protein HSP90; test: Inhibition of Hsp90 in human MCF7 cell lysates assessed as interaction with Cy3b-conjugated geldanamycin by FP assay; assay type: cell-free

| Compound | IC50 (MCF7) [µM] | IC50 (Heat shock protein HSP90 [1]) [µM] | IC50 (Heat shock protein HSP90 [2]) [µM] | Activity (Heat shock protein HSP90 [1]) | IC50 (Heat shock protein HSP90 [2]; read-out: IC50) [µM] |
| --- | --- | --- | --- | --- | --- |
| Br.CCN(CC)CCCCCNc1cc(O)cc2cccnc12 | 1 | 1 | 0.73 |  |  |
| CCC(N)CCNc1cc(O)cc2cccnc12 (stereo unspecified) |  |  | < 1.6 | inactive |  |
| COc1cc(NC(C)CCCNC(C)C)c2ncccc2c1OC (stereo unspecified) |  | 25 | 44 |  |  |
| NCCCCCNc1cc(O)cc2cccnc12 |  | 20 | < 1 |  |  |
| CCN(CC)CCCNc1cc(OC)c(Nc2ccccc2)c2cccnc12 |  | 25 | 2.1 |  |  |
| CC(CCCN)Nc1cc(O)cc2cccnc12 (stereo unspecified) |  |  | 1.8 | inactive |  |
| COc1cc(NCCCN(C(C)C)C(C)C)c2nc(OC)cc(Cl)c2c1 |  |  | > 50 | inactive |  |
| COc1cc(NC(C)CCCN)c2ncccc2c1Oc1ccc(Cl)cc1 (stereo unspecified) |  |  | > 50 | inactive |  |
| CC(C)NCCCC(C)Nc1cc(O)cc2cccnc12 (stereo unspecified) |  |  | < 1.6 | inactive |  |
| NCCCNc1cc(O)cc2cccnc12 |  |  | 7.6 | inactive |  |
| CC(C)NCCCCCNc1cc(O)cc2cccnc12 |  | 6 | 2.4 |  |  |
| NCCCCNc1cc(O)cc2cccnc12 |  |  | < 1.6 | inactive |  |
| CCN(CC)CCCC(C)Nc1cc(O)cc2cccnc12 (stereo unspecified) |  |  | 1.1 | inactive |  |
| CCN(CC)CCCNc1cc(OC)cc2ccc(OC)nc12 |  |  | 14 | inactive |  |
| COc1ccc(Oc2c(OC)cc(NCCCCCNC(C)C)c3ncccc23)cc1 |  |  | > 50 | inactive |  |
| CC(N)CCCNc1cc(O)cc2cccnc12 (stereo unspecified) |  |  | < 1.6 | inactive |  |
| CC(CCN(C)C)Nc1cc(O)cc2cccnc12 (stereo unspecified) |  | 30 | 0.8 |  |  |
| CCCNCCCC(C)Nc1cc(OC)cc2c(C)ccnc12 (stereo unspecified) |  |  | > 50 | inactive |  |
| CCN(CC)CCCCNc1cc(O)cc2cccnc12 |  |  | > 50 | inactive |  |
| CC(N)CCCCNc1cc(O)cc2cccnc12 (stereo unspecified) |  | 20 | < 1.6 |  |  |

Now from value to compound:

| IC50 (MCF7) [µM] | IC50 (Heat shock protein HSP90 [1]) [µM] | IC50 (Heat shock protein HSP90 [2]) [µM] | Activity (Heat shock protein HSP90 [1]) | IC50 (Heat shock protein HSP90 [2]; read-out: IC50) [µM] | Compound |
| --- | --- | --- | --- | --- | --- |
|  | 1.6 | 4.9 |  |  | COc1cc(NCCN(CC(C)C)CC(C)C)c2ncccc2c1 |
|  |  | 40 | inactive |  | COc1cc(NCCN(C(C)C)C(C)C)c2ncccc2c1 |
|  |  | 40 | inactive |  | CCCCN(CCCC)CCNc1cc(OC)cc2cccnc12 |
|  |  | 8 | inactive |  | CCCC(C)N(CC)CCNc1cc(OC)cc2cccnc12 (stereo unspecified) |
|  | 13 | 40 |  |  | CCC(CC)NCCCNc1cc(OC)cc2cccnc12 |
|  |  |  | inactive | 3.1 | CCC(C)NCCNc1cc(OC)cc2cccnc12 (stereo unspecified) |
|  | 25 | > 50 |  |  | COc1cc(NCCCCN)c2ncccc2c1 |
|  | 5 | 5.8 |  |  | COc1cc(NCCCC(C)N)c2ncccc2c1.Cl.Cl (stereo unspecified) |
|  |  | 14.4 | inactive |  | COc1cc(NC(C)CCCNC(C)C)c2ncccc2c1 (stereo unspecified) |
|  |  | > 50 | inactive |  | CCC(C)(C)NCCCCCNc1cc(OC)cc2cccnc12 |
